Test results as given in patent US12325701B2, “YKL-40 inhibitors and their therapeutic” (Molecure S.A., priority 2022, dated 2025).
Where a name gives a salt, the structure may show the parent alone.

These molecules were tested against human YKL-40 (Homo sapiens (Human), UniProt P36222) (assay: Human YKL-40 direct binding assay based on MicroScale Thermophoresis (MST)). Conditions: by MST and competitive AlphaScreen for chitin binding site; depends on ligand length, sulphation, Mg2+.
human YKL-40, sequence (P36222 22-383): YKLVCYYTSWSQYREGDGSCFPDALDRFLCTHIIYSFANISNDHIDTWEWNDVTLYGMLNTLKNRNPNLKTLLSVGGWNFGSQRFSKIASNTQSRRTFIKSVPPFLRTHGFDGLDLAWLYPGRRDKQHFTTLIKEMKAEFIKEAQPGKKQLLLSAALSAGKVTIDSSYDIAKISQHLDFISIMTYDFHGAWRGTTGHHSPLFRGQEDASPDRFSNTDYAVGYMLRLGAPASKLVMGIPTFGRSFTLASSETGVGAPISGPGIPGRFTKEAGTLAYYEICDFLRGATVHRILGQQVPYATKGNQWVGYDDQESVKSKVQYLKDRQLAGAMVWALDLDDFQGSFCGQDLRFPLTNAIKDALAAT
With heparin sodium salt the “binding affinity to YKL-40 (in words)” value was “high nM affinity”.

What follows are molecules tested against YKL-40 (YKL-40: heparan sulfate interaction) (Homo sapiens (Human), UniProt P36222) (assay: YKL-40:HS assay, heparan sulfate interference AlphaScreen). Conditions: read-out: YKL-40:HS, IC50/max % inh (max % inh).
YKL-40 (YKL-40: heparan sulfate interaction), sequence (P36222 22-383): as above
Experimental: Positive and negative control wells received just 8 uL of MST buffer containing 2% DMSO without inhibitor in the 2nd step (ii). In addition, negative control received just 8 uL of MST buffer containing 0% DMSO without YKL-40-histag in the 3nd step (iii). Finally, the plate luminescence was excited at 680 nm and the emission read at 520-620 nm using the AlphaScreen module in the The Spark™ 1 μM multimode microplate reader (Tecan Trading AG, Mannedorf, Switzerland). Inhibition percentage and IC50 values were determined using GraphPad Prism 7.0 software (GraphPad Software, San Diego, CA, USA).
Work on Cc1cnc(N2CCC(N3C[C@H](C)OC[C@@H]3Cc3ccc(Cl)cc3)CC2)s1 [Compound 185, (2S,5S)-5-(4-chlorobenzyl)-2-methyl-4-(1-(5-methylthiazol-2-yl)piperidin-4-yl)morpholine 2,2,2-trifluoroacetate] yielded an inhibition of 36%. Cc1ccnc(N2CCC(N3C[C@H](C)OC[C@@H]3Cc3ccc(Cl)cc3)CC2)c1F [Compound 112, (2S,5S)-5-(4-chlorobenzyl)-4-(1-(3-fluoro-4-methylpyridin-2-yl)piperidin-4-yl)-2-methylmorpholine 2,2,2-trifluoroacetate] was tested, and the inhibition was 30%. For CNC(=O)CN1C[C@H](Cc2ccc(Cl)cc2)N(C2CCN(c3ccccn3)CC2)C[C@@H]1C(C)C [Compound 106, 2-((2S,5S)-5-(4-chlorobenzyl)-2-isopropyl-4-(1-(pyridin-2-yl)piperidin-4-yl)piperazin-1-yl)-N-methylacetamide 2,2,2-trifluoroacetate], the inhibition was 27%. CNC(=O)CN1C[C@H](Cc2ccc(Cl)cc2)N(C2CCN(c3ccccn3)CC2)C[C@@H]1CC(C)C [Compound 95, 2-((2S,5S)-5-(4-chlorobenzyl)-2-isobutyl-4-(1-(pyridin-2-yl)piperidin-4-yl)piperazin-1-yl)-N-methylacetamide 2,2,2-trifluoroacetate] was tested, and the inhibition was 85%. CN1C[C@H](Cc2ccc(Cl)cc2)N(C2CCN(c3cc(Cl)ccn3)CC2)C[C@@H]1CN1CCOCC1 [Compound 51, 4-(((2S,5S)-5-(4-chlorobenzyl)-4-(1-(4-chloropyridin-2-yl)piperidin-4-yl)-1-methyl-piperazin-2-yl)methyl)morpholine hydrochloride] was tested, and the inhibition was 52%.
